We go through one sequence from patent US9657071B2, “IgE peptide vaccine” (NIPPON ZENYAKU KOGYO CO., LTD., priority 2012, dated 2017).

This assay deals with human IgE. Put plainly: Test using dog (Part 2): IgG antibody against human IgE (ELISA). It counts as in vivo. The note with it: healthy adult beagles 24 months old, s.c. 1 mg five times at 2-week intervals. The method, then:
Human IgE (Athens Research And Technology, Inc.; IgE, human Myeloma Plasma) was prepared at 1 μg/mL in an immobilization buffer (0.05 M carbonate buffer, pH 9.6), then added at a concentration of 100 μL/well to an ELISA plate, and left overnight at 4° C. The immobilization plate was washed once with PBS-T (0.05%). A blocking solution (4× Block Ace, Snow Brand Milk Products Co., Ltd.; UK-B80) was added thereto at a concentration of 200 μL/well. The plate was blocked by incubation at 37° C. for 1.5 hours. The serum was diluted 1000-fold with a diluent (PBS-T:Block Ace=9:1) and used. The plate was reacted with the serum at 37° C. for 1.5 hours and washed three times with PBS-T (0.05%). An anti-dog IgG antibody (Sheep anti-Dog IgG HRP, Bethyl Laboratories, Inc.; A40-118P) was diluted 2000-fold with a diluent and added thereto as a secondary antibody at a concentration of 100 μL/well. After reaction at 37° C. for 1.5 hours, the plate was washed three times with PBS-T (0.05%). A substrate solution (citrate buffer supplemented with one TMBZ tablet (Sigma-Aldrich Corp.; T-3405) and further supplemented, immediately before use, with 2 μL of 30% H2O2) was added at a concentration of 100 μL/well to the plate and reacted therewith for 10 minutes. […] Then, the measurement was performed using a plate reader (Bio-Rad Laboratories, Inc.; model 680) (dual: measurement: 450 nm, control: 570 nm). […]

Consider “KKTSVSASQWYTKHHNNATT (listed as Mus musculus) [M4-7-11]”, for which the “level of the IgG antibody against IgE” value is recorded as “confirmed to elevate”.
